Laboratory results as given in article PMC11396746, “Stability Evaluation and Pharmacokinetic Profiling of Vepdegestrant in Rodents Using Liquid Chromatography–Tandem Mass Spectrometry” (Molecules, 2024).

What was measured:
[1] = Stability in PBS only (control of microsomal stability test, no NADPH and no microsomes); assay type: physicochemical; conditions: PBS (pH 7.4), 1 h incubation
Procedure: (§1) The metabolic stability of vepdegestrant was evaluated using liver microsomes obtained from mice, rats, dogs, and humans. Vepdegestrant was dissolved in DMSO to prepare a stock solution with a concentration of 0.1 mM. Microsomes (25 µL) were spiked into PBS (440 µL) and pre-incubated for 5 min. After pre-incubation, vepdegestrant stock solution (5 µL) was added, followed by an NADPH regenerating system (27 µL) to initiate the reaction. The composition of the reaction mixture was as follows: Vepdegestrant (final concentration 1 µM), mouse, rat, dog, human liver microsomes (protein concentration: 1 mg/mL), NADPH regenerating system (final concentrations: 1.3 mM NADP^+, 3.3 mM glucose-6-phosphate, 0.4 U/mL glucose-6-phosphate dehydrogenase, and 3.3 mM magnesium chloride), and PBS (pH 7.4). At 5, 15, 30, and 60 min after starting the reaction, aliquots (50 µL) were taken and added to ice-cold ACN with an IS (200 µL) to terminate the reaction. For the zero-time samples, aliquots were taken before adding NADPH. Subsequently, the mixture was vigorously mixed for 10 min and centrifuged at 17,054 g under 25 °C for 10 min. For analysis, 5 µL of the supernatant was injected into the HPLC-MS/MS system. In addition, the stability of vepdegestrant in rat liver microsomes was assessed in the absence of NADPH or NADPH and microsomes (PBS only). […]

[2] = Stability of vepdegestrant in mouse plasma under storage conditions (method validation); assay type: in vitro ADME
Procedure: The results were within ±15% RE under all storage conditions, including at room temperature for 6 h, after three freeze–thaw cycles, at −20 °C for 4 weeks, and in an autosampler for 24 h after sample preparation.
Stability was tested for vepdegestrant in biological samples at LQC and HQC under specific conditions: Short-term stability at room temperature for 6 h, three freeze–thaw cycles, long-term stability at −20 °C for 4 weeks, and pretreated samples in an autosampler for 24 h. The stability test was performed via five replicates analysis, with the acceptance criteria being an RE within ±15% at LQC and HQC levels.

[3] = Metabolic stability in rat liver microsomes; assay type: in vitro ADME
Procedure: The metabolic stability of vepdegestrant was evaluated using liver microsomes obtained from mice, rats, dogs, and humans. Vepdegestrant was dissolved in DMSO to prepare a stock solution with a concentration of 0.1 mM. Microsomes (25 µL) were spiked into PBS (440 µL) and pre-incubated for 5 min. After pre-incubation, vepdegestrant stock solution (5 µL) was added, followed by an NADPH regenerating system (27 µL) to initiate the reaction. The composition of the reaction mixture was as follows: Vepdegestrant (final concentration 1 µM), mouse, rat, dog, human liver microsomes (protein concentration: 1 mg/mL), NADPH regenerating system (final concentrations: 1.3 mM NADP^+, 3.3 mM glucose-6-phosphate, 0.4 U/mL glucose-6-phosphate dehydrogenase, and 3.3 mM magnesium chloride), and PBS (pH 7.4). At 5, 15, 30, and 60 min after starting the reaction, aliquots (50 µL) were taken and added to ice-cold ACN with an IS (200 µL) to terminate the reaction. For the zero-time samples, aliquots were taken before adding NADPH. Subsequently, the mixture was vigorously mixed for 10 min and centrifuged at 17,054 g under 25 °C for 10 min. For analysis, 5 µL of the supernatant was injected into the HPLC-MS/MS system. In addition, the stability of vepdegestrant in rat liver microsomes was assessed in the absence of NADPH or NADPH and microsomes (PBS only). The experimental procedure was the same as described for the microsomal stability test, except that an equivalent volume of PBS was added instead of NADPH or microsomes.

[4] = Metabolic stability in dog liver microsomes; assay type: in vitro ADME
Procedure: as §1

[5] = pH stability in buffer solutions (pH 2-10) and PBS pH 7.4; assay type: physicochemical; conditions: for vepdegestrant remaining: 2 h, 0.1 µg/mL
Procedure: The physicochemical stability of vepdegestrant was determined using various pH buffers (pH 2.0–10.0) and plasma and microsomes.
A solution of vepdegestrant in methanol (10 µL) was added to buffer solutions at pH 2, 4, 6, 8, and 10 or pH 7.4 PBS (490 µL), yielding a final concentration of 0.1 µg/mL, and incubated at 37 °C, with 100 rpm in a water bath. At 0, 0.5, 1, and 2 h post-incubation, the incubation mixture (50 µL) was transferred to microtubes containing ice-cold ACN solution (200 µL) with IS to terminate the reaction. The mixture was vortexed thoroughly for 10 min. Subsequently, the supernatant (100 µL) was taken, and 5 µL was injected for HPLC-MS/MS analysis.

[6] = Plasma stability at 4, 25 and 37 °C; assay type: in vitro ADME; conditions: mouse and rat plasma at 4, 25 and 37 °C, 4 h incubation, 0.1 µg/mL
Procedure: Plasma stability of vepdegestrant was investigated in mouse and rat plasma. Vepdegestrant (10 µL) was added to blank mouse or rat plasma (490 µL) to prepare a final concentration of 0.1 µg/mL. The mixtures were incubated at 4, 25, and 37 °C. After 0, 1, and 4 h of incubation, aliquots (50 µL) were added to microtubes containing ice-cold ACN solution with an IS (200 µL) to terminate the reaction. The mixture was vortexed thoroughly for 10 min and centrifuged at 17,054 g under 25 °C for 10 min. Subsequently, the supernatant (100 µL) was taken, and 5 µL was injected for HPLC-MS/MS analysis.

- vepdegestrant remaining [1]: 10.2%
- Stability in Mouse Plasma ([2]; 1 month at −20 °C, nominal 3 ng/mL): 103.1 ± 5.4%
- Stability in Mouse Plasma ([2]; 1 month at −20 °C, nominal 900 ng/mL): 107.7 ± 4.0%
- Stability in Mouse Plasma ([2]; 6 h at room temperature (25 °C), nominal 3 ng/mL): 97.70 ± 4.12%
- Stability in Mouse Plasma ([2]; 6 h at room temperature (25 °C), nominal 900 ng/mL): 110.7 ± 2.8%
- Stability in Mouse Plasma ([2]; Freeze–thaw three-cycle (−20 °C → RT), nominal 3 ng/mL): 99.78 ± 1.60%
- Stability in Mouse Plasma ([2]; Freeze–thaw three-cycle (−20 °C → RT), nominal 900 ng/mL): 103.3 ± 4.1%
- Stability in Mouse Plasma ([2]; Processed sample in 10 °C autosampler for 24 h, nominal 3 ng/mL): 104.0 ± 7.2%
- Stability in Mouse Plasma ([2]; Processed sample in 10 °C autosampler for 24 h, nominal 900 ng/mL): 98.49 ± 8.79%
- half-life at 1 µM ([3]; Sprague-Dawley, liver microsomes, pH 7.4, rat microsomes, 1 μM): 36.9 min
- vepdegestrant remaining ([3]; rat microsomes in the absence of NADPH, 1 h incubation): 86.6%
- remaining percentage of unconverted vepdegestrant ([3]; rat microsomes, 60 min, 1 μM, with NADPH): 32.2%
- remaining percentage of unconverted vepdegestrant ([4]; 60 min, 1 μM, with NADPH): 97.1%
- half-life at 1 µM ([4]; beagle, liver microsomes, pH 7.4): 591 min
- half-life at 0.1 µg/mL ([5]; PBS pH 7.4, pH 7.4 (PBS), 37 °C): 30 min
- half-life at 0.1 µg/mL ([5]; pH 2 buffer solution, pH 2, 37 °C): 441 min
- vepdegestrant remaining ([5]; pH 2 buffer, 37 °C): 82.6%
- half-life at 0.1 µg/mL ([5]; pH 4 buffer solution, pH 4, 37 °C): 46.2 min
- vepdegestrant remaining ([5]; pH 4–10 buffers, 37 °C): 2.25–12.8%
- half-life at 0.1 µg/mL ([5]; pH 6 buffer solution, pH 6, 37 °C): 24 min
- half-life at 0.1 µg/mL ([5]; pH 8 buffer solution, pH 8, 37 °C): 22.8 min
- half-life at 0.1 µg/mL ([5]; pH 10 buffer solution, pH 10, 37 °C): 36 min
- vepdegestrant remaining in plasma [6]: 86.3–113.5%
SMILES: O=C1CC[C@H](N2Cc3cc(N4CCN(CC5CCN(c6ccc([C@@H]7c8ccc(O)cc8CC[C@@H]7c7ccccc7)cc6)CC5)CC4)ccc3C2=O)C(=O)N1 [vepdegestrant, Vepdegestrant]
